Results taken from the supplement of paper PMC10307832.

What follows are cell lines tested with Cc1nc(C(=O)NCC(=O)O)c(O)c2ccc(Oc3ccccc3)cc12 [FG-4592] + CCNC(=O)c1noc(-c2cc(C(C)C)c(O)cc2O)c1-c1ccc(CN2CCOCC2)cc1 [Luminespib] (partner 0.01 µM) (assay: relative viability (nuclei count vs DMSO), 5 days (fraction); higher = more cells survive). Details: first compound 0.08 µM.
Procedure, shortened: (§1)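 Relative viability equals treated-well nuclei counts divided by vehicle-well nuclei counts. Counts came from 4× images of lung cancer cell lines grown in 1536-well plates for 5 days after pin-tool dosing on the day after seeding. Dosing used one drug alone or a fixed anchor-drug dose plus five library-drug doses (not always all listed) in √10 steps, and values are medians of duplicate plates.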

| Cell Line | relative viability |
| --- | --- |
| NCI-H522 | 0.895 |
| NCI-H1623 | 0.466 |
| NCI-H727 | 0.341 |
| NCI-H1650 | 0.206 |
| NCI-H1993 | 0.806 |
| SW 1573 | 0.224 |
| NCI-H838 | 0.324 |
| LCLC-103H | 0.891 |
| NCI-H520 | 0.22 |
| NCI-H2126 | 0.918 |
| EMC-BAC-2 | 1.2 |
| NCI-H2085 | 0.439 |
| NCI-H1666 | 0.966 |
| NCI-H596 | 1.14 |
| LK-2 | 0.227 |
| NCI-H2087 | 0.196 |

| Cell Line | relative viability |
| --- | --- |
| NCI-H2342 | 0.674 |
| SK-MES-1 | 0.837 |
| H3255 | 0.891 |
| COR-L23 | 0.757 |
| COR-L 105 | 0.779 |
| LOU-NH91 | 0.275 |
| ChaGo-K-1 | 0.522 |
| NCI-H2170 | 0.653 |
| NCI-H2405 | 0.577 |
| HOP-62 | 0.88 |
| HCC-44 | 1.05 |
| SW 900 | 0.168 |
| LU99A | 0.287 |
| BEN | 0.337 |
| NCI-H1563 | 0.552 |
| ABC-1 | 0.501 |

Same assay, conditions: first compound 0.253 µM

| Cell Line | relative viability |
| --- | --- |
| NCI-H522 | 1.22 |
| NCI-H1623 | 0.547 |
| NCI-H727 | 0.237 |
| NCI-H1650 | 0.208 |
| NCI-H1993 | 0.868 |
| SW 1573 | 0.547 |
| NCI-H838 | 0.179 |
| LCLC-103H | 0.935 |
| NCI-H520 | 0.209 |
| NCI-H2126 | 0.904 |
| EMC-BAC-2 | 1.11 |
| NCI-H2085 | 0.47 |
| NCI-H1666 | 0.965 |
| NCI-H596 | 1.08 |
| LK-2 | 0.168 |
| NCI-H2087 | 0.151 |

| Cell Line | relative viability |
| --- | --- |
| NCI-H2342 | 0.71 |
| SK-MES-1 | 0.721 |
| H3255 | 0.804 |
| COR-L23 | 0.524 |
| COR-L 105 | 0.696 |
| LOU-NH91 | 0.342 |
| ChaGo-K-1 | 0.548 |
| NCI-H2170 | 0.62 |
| HOP-62 | 0.871 |
| HCC-44 | 1.01 |
| SW 900 | 0.167 |
| LU99A | 0.254 |
| BEN | 0.386 |
| NCI-H1563 | 0.528 |
| ABC-1 | 0.515 |

Same assay, conditions: first compound 0.8 µM

| Cell Line | relative viability |
| --- | --- |
| NCI-H522 | 1.18 |
| NCI-H1623 | 0.409 |
| NCI-H727 | 0.335 |
| NCI-H1650 | 0.219 |
| NCI-H1993 | 0.771 |
| SW 1573 | 0.186 |
| NCI-H838 | 0.263 |
| LCLC-103H | 0.998 |
| NCI-H2126 | 0.887 |
| EMC-BAC-2 | 1.1 |
| NCI-H2085 | 0.389 |
| NCI-H1666 | 0.96 |
| NCI-H596 | 0.886 |
| NCI-H2087 | 0.142 |
| NCI-H2342 | 0.576 |
| SK-MES-1 | 0.683 |
| H3255 | 0.848 |
| COR-L23 | 0.645 |
| COR-L 105 | 0.752 |
| LOU-NH91 | 0.299 |
| ChaGo-K-1 | 0.594 |
| NCI-H2170 | 0.538 |
| NCI-H2405 | 0.675 |
| HOP-62 | 0.993 |
| SW 900 | 0.174 |
| LU99A | 0.294 |
| BEN | 0.39 |
| NCI-H1563 | 0.537 |

Same assay, conditions: first compound 2.53 µM

| Cell Line | relative viability |
| --- | --- |
| NCI-H522 | 1.01 |
| NCI-H1623 | 0.492 |
| NCI-H727 | 1.02 |
| NCI-H1650 | 0.197 |
| NCI-H1993 | 0.984 |
| SW 1573 | 0.415 |
| NCI-H838 | 0.386 |
| LCLC-103H | 1.09 |
| NCI-H520 | 0.204 |
| NCI-H2126 | 0.759 |
| EMC-BAC-2 | 1.17 |
| NCI-H2085 | 0.426 |
| NCI-H1666 | 1 |
| NCI-H596 | 1.15 |
| LK-2 | 0.146 |
| NCI-H2087 | 0.151 |

| Cell Line | relative viability |
| --- | --- |
| NCI-H2342 | 0.783 |
| SK-MES-1 | 0.794 |
| H3255 | 0.945 |
| COR-L23 | 0.611 |
| COR-L 105 | 0.847 |
| LOU-NH91 | 0.325 |
| ChaGo-K-1 | 0.702 |
| NCI-H2170 | 0.606 |
| NCI-H2405 | 0.691 |
| HOP-62 | 0.902 |
| HCC-44 | 0.934 |
| SW 900 | 0.174 |
| LU99A | 0.234 |
| BEN | 0.437 |
| NCI-H1563 | 0.534 |
| ABC-1 | 0.413 |

Same assay, conditions: first compound 8 µM

| Cell Line | relative viability |
| --- | --- |
| NCI-H522 | 1.08 |
| NCI-H1623 | 0.415 |
| NCI-H727 | 0.326 |
| NCI-H1650 | 0.209 |
| NCI-H1993 | 0.869 |
| SW 1573 | 0.223 |
| NCI-H838 | 0.272 |
| LCLC-103H | 0.855 |
| NCI-H520 | 0.201 |
| NCI-H2126 | 0.603 |
| EMC-BAC-2 | 1.11 |
| NCI-H2085 | 0.462 |
| NCI-H1666 | 0.95 |
| NCI-H596 | 0.676 |
| LK-2 | 0.177 |
| NCI-H2087 | 0.148 |

| Cell Line | relative viability |
| --- | --- |
| NCI-H2342 | 0.537 |
| SK-MES-1 | 0.785 |
| H3255 | 0.875 |
| COR-L23 | 0.593 |
| COR-L 105 | 0.776 |
| LOU-NH91 | 0.367 |
| ChaGo-K-1 | 0.459 |
| NCI-H2170 | 0.501 |
| NCI-H2405 | 0.658 |
| HOP-62 | 0.962 |
| HCC-44 | 1.05 |
| SW 900 | 0.165 |
| LU99A | 0.279 |
| BEN | 0.218 |
| NCI-H1563 | 0.535 |
| ABC-1 | 0.42 |

These cell lines were tested with Cc1nc(C(=O)NCC(=O)O)c(O)c2ccc(Oc3ccccc3)cc12 [FG-4592] + C[C@]1(O)C[C@@H](c2nc(-c3ccc4ccc(-c5ccccc5)nc4c3)c3c(N)nccn32)C1 [Linsitinib] (partner 1 µM) in the same assay as above. Details: first compound 0.08 µM.
Procedure, shortened: as §1

| Cell Line | relative viability |
| --- | --- |
| NCI-H727 | 0.298 |
| EBC-1 | 0.88 |
| NCI-H1703 | 0.837 |
